Molecules are shown by their SMILES. Entries after “also recorded” stand apart in the source; their conditions may differ. A value given as a limit tells only on which side of the number the result lay.

Common to all, as to assay type: cell-based
Assay [1] relates to 6 B-Raf mutant colorectal cancer cell lines. The assay can be described thus: Cell proliferation over the panel of 6 cell lines. As to conditions: single agent. As to the method:
(§1) The compounds were dissolved in 100% DMSO (Sigma, Catalog number D2650) at concentrations of 20 mM and stored at −20° C. until use. Compounds were arrayed in drug master plates (Greiner, Catalog number 788876) and serially diluted 3-fold (7 steps) at 2000× concentration.
(§2) Colorectal cancer cell lines used for this study were obtained, cultured and processed from commercial vendors ATCC, CellBank Australia, and HSRRB (Table 1). All cell line media were supplemented with 10% FBS (HyClone, Catalog number SH30071.03). […]
(§3) Cell lines were cultured in 37° C. and 5% CO2 incubator and expanded in T-75 flasks. In all cases cells were thawed from frozen stocks, expanded through ≥1 passage using 1:3 dilutions, counted and assessed for viability using a ViCell counter (Beckman-Coulter) prior to plating. […] All cell lines were determined to be free of mycoplasma contamination as determined by a PCR detection methodology performed at Idexx Radil (Columbia, Mo., USA) and correctly identified by detection of a panel of SNPs.
(§4) Images were analyzed after adapting previously described methods (Horn, Sandmann et al. 2011) and using the Bioconductor package EBImage in R (Pau, Fuchs et al. 2010). Objects in both channels, DAPI (for Hoechst/DNA) and FITC (for Caspase 3/7), were segmented separately by adaptive thresholding and counted. […]

The next assay deals with HT-29. The experiment in a line: Cell proliferation (cell count by microscopy) in HT-29. Particulars: Homo sapiens; single agent; HT-29 (BRAF, PIK3CA); 72 h; 50% of cell counts relative to DMSO. As to the method:
as §1, §2, §3, §4

The subject of a further assay is LIM2551. The assay can be described thus: Cell proliferation (cell count by microscopy) in LIM2551. As to conditions: single agent; LIM2551 (BRAF, PIK3CA); 72 h; 50% of cell counts relative to DMSO. As to the method: as §1, §2, §3, §4
The test system of a further assay is RKO. The assay can be described thus: Cell proliferation (cell count by microscopy) in RKO. As to conditions: Homo sapiens; single agent; RKO (BRAF, PIK3CA); 72 h; 50% of cell counts relative to DMSO. As to the method: as §1, §2, §3, §4
The next assay relates to LS411N. The experiment in a line: Cell proliferation (cell count by microscopy) in LS411N. As to conditions: Homo sapiens, LS-411N; single agent; LS411N (BRAF); 72 h; 50% of cell counts relative to DMSO. As to the method:
as §1, §2, §3, §4

The subject of a further assay is COLO-205. The experiment in a line: Cell proliferation (cell count by microscopy) in COLO-205. As to conditions: Homo sapiens; single agent; COLO-205 (BRAF); 72 h; 50% of cell counts relative to DMSO. The method, then: as §1, §2, §3, §4
The subject of a further assay is OUMS-23. The experiment in a line: Cell proliferation (cell count by microscopy) in OUMS-23. As to conditions: single agent; OUMS-23 (BRAF); 72 h; 50% of cell counts relative to DMSO. As to the method:
as §1, §2, §3, §4

`Cc1nc(NC(=O)N2CCC[C@H]2C(N)=O)sc1-c1ccnc(C(C)(C)C(F)(F)F)c1` [BYL719, (S)-Pyrrolidine-1,2-dicarboxylic acid 2-amide 1-({4-methyl-5-[2-(2,2,2-trifluoro-1,1-dimethyl-ethyl)-pyridin-4-yl]-thiazol-2-yl}-amide)]: the “IC50s (in words)” value in assay [1] (in the PIK3CA mutant cells) is recorded as “micromolar”.

On to `CC(C)(C)c1nc(-c2cccc(NS(=O)(=O)c3c(F)cccc3F)c2F)c(-c2ccnc(N)n2)s1` [Dabrafenib, N-{3-[5-(2-Amino-4-pyrimidinyl)-2-(1,1-dimethylethyl)-1,3-thiazol-4-yl]-2-fluorophenyl}-2,6-difluorobenzenesulfonamide], for which the IC50 was 16 nM in the assay on HT-29; 18 nM in the assay on LIM2551; 240 nM with RKO; 36 nM with LS411N; 7 nM with COLO-205; above 1000 nM in the assay on OUMS-23. For the same molecule, the “IC50s (in words)” value in assay [1] (all but one cell line (ODMS-23)) is reported as “nanomolar to low micromolar; also recorded: nanomolar to sub-micromolar”.

The IC50 is the concentration at which inhibition is half-maximal.
